Measurements published in patent publication US7807162B2, “Single domain VHH antibodies against von Willebrand factor” (Ablynx N.V., priority 2005, dated 2010).

Test system: ADAMTS-13
Assay: Cleavage of ULvWF platelet strings by ADAMTS-13 (perfusion assay)
Type: cell-based, human
Experimental: ADAMTS-13 reduces the size of large and ultralarge VWF multimers to smaller forms by specifically cleaving the Y842/M843 peptide bond in the VWF A2 domain.
In a first experiment, strings were generated by a 4 minute perfusion of washed platelets resuspended in buffer over histamine-stimulated endothelial cells. Subsequently, the non-adhered platelets were washed away by a 4 minute perfusion of buffer. After that, buffer was perfused for an other 4 minutes, followed by a 4 minute perfusion of pooled normal plasma containing ADAMTS-13. Detachment of the platelet strings was observed after perfusion of pooled normal plasma (FIG. 43). More than 95% of the strings were cleaved after the 4 minute perfusion.
In a next experiment, strings were generated by a 4 minute perfusion of washed platelets resuspended in buffer over histamine-stimulated endothelial cells and the non-adhered platelets were washed away by a 4 minute perfusion of buffer as above.

## ALX-0081: ALX-0081 (SEQ ID NO:98), Nanobody; humanised bivalent nanobody with the 3a linker
ALX-0081 10 μg/ml
  effect on the cleavage of ULvWF strings by ADAMTS-13: does not have an effect
ALX-0081 10 μg/ml (10-fold molar excess over vWF)
  strings cleaved after the 4 minute perfusion of pooled normal plasma: 95%
